Results: ChEMBL document CHEMBL1143749, “A new therapeutic approach in Alzheimer disease: some novel pyrazole derivatives as dual MAO-B inhibitors and antiinflammatory analgesics” (Bioorg Med Chem, 2007)

What was measured:
[1] = tested on: Mus musculus; assay: Inhibition of carrageenan-induced hind paw oedema in Swiss Albino mouse at 100 mg/kg, po after 360 mins relative to control; assay type: functional; details: for inhibition in vivo at 100 mg/kg: Mus musculus, Swiss Albino, po, 6 h
[2] = tested on: Mus musculus; assay: Inhibition of carrageenan-induced hind paw oedema in Swiss Albino mouse at 100 mg/kg, po after 90 mins relative to control; assay type: functional; details: for inhibition in vivo at 100 mg/kg: Mus musculus, Swiss Albino, po, 1.5 h
[3] = tested on: Mus musculus; assay: Inhibition of carrageenan-induced hind paw oedema in Swiss Albino mouse at 100 mg/kg, po after 270 mins relative to control; assay type: functional; details: for inhibition in vivo at 100 mg/kg: Mus musculus, Swiss Albino, po, 4.5 h
[4] = biological target: T1, Amine oxidase [flavin-containing] B (Rattus norvegicus, UniProt P19643); assay: Inhibition of rat liver MAOB after 60 mins pre-incubation
T1 sequence (P19643 whole entry): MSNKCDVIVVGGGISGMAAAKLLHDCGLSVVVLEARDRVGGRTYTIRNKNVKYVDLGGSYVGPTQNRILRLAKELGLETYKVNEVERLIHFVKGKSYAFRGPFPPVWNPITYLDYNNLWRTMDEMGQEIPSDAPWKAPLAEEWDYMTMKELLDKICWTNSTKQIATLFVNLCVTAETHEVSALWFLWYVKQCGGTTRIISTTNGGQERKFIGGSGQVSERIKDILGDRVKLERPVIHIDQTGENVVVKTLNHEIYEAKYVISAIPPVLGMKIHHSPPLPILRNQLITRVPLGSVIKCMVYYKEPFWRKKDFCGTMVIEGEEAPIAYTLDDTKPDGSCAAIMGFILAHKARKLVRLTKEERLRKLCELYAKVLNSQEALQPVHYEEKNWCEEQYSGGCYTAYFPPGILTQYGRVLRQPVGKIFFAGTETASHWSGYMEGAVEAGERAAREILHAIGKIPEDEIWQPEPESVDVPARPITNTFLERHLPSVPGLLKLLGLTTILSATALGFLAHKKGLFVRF

[5] = tested on: Mus musculus; assay: Inhibition of acetic acid-induced capillary permeability in Swiss Albino mouse at 100 mg/kg, po; assay type: functional
[6] = tested on: Mus musculus; assay: Toxicity in Swiss Albino mouse assessed as ulcerogenic abdomen lesions at 100 mg/kg, po; assay type: organism-based; design: dose 100 mg/kg, route oral; details: in vivo
[7] = tested on: Mus musculus; assay: Analgesic activity against p-Benzoquinone-induced writhings in Swiss Albino mouse assessed as number writhings at 100 mg/kg, po; assay type: functional
[8] = tested on: Mus musculus; assay: Inhibition of carrageenan-induced hind paw oedema in Swiss Albino mouse at 100 mg/kg, po after 180 mins relative to control; assay type: functional; details: for inhibition in vivo at 100 mg/kg: Mus musculus, Swiss Albino, po, 3 h
[9] = biological target: T1, Amine oxidase [flavin-containing] B; assay: Inhibition of rat liver MAOB
[10] = tested on: Mus musculus; assay: Inhibition of p-Benzoquinone-induced writhings in Swiss Albino mouse at 100 mg/kg, po relative to control; assay type: functional; details: for inhibition in vivo at 100 mg/kg: Mus musculus, Swiss Albino, po
[11] = biological target: T2, Amine oxidase [flavin-containing] A (Rattus norvegicus, UniProt P21396); assay: Inhibition of rat liver MAOA after 60 mins pre-incubation
T2 sequence (P21396 whole entry): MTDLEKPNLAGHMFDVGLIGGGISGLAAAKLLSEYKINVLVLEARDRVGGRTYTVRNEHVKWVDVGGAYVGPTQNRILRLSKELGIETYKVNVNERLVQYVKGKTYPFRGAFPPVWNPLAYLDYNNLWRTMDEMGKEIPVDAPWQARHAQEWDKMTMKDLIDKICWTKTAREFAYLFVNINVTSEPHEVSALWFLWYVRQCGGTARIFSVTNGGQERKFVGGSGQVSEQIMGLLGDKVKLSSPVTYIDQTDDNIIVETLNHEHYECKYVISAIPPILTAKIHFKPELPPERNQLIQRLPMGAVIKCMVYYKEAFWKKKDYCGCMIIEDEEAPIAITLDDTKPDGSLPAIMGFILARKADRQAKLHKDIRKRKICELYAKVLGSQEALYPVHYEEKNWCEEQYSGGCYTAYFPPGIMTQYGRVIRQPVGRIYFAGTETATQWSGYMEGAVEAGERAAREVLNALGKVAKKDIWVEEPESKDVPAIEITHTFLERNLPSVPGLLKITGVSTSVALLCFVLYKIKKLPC

[12] = tested on: Mus musculus; assay: Inhibition of acetic acid-induced capillary permeability in Swiss Albino mouse at 10 mg/kg, po; details: read-out: Inhibition
[13] = biological target: T2, Amine oxidase [flavin-containing] A; assay: Inhibition of rat liver MAOA

Structure (SMILES) | inhibition in vivo at 100 mg/kg [1] | inhibition in vivo at 100 mg/kg [2] | inhibition in vivo at 100 mg/kg [3] | IC50 [4] | inhibition in vivo at 100 mg/kg [5] | Activity [6] | writhing count [7] | inhibition in vivo at 100 mg/kg [8] | Ki [9] | inhibition in vivo at 100 mg/kg [10] | IC50 [11] | Activity [7] | inhibition in vivo at 10 mg/kg [12] | Ki [13] | Inhibition [1] | Inhibition [2] | Inhibition [3] | Inhibition [8] | Inhibition [10]
COc1ccc(C2=NN(C(=S)Nc3ccccc3)C(c3ccc[nH]3)C2)cc1 (stereo not drawn) | 21.6% | 20.7% | 16.5% | 30.1 µM | 22.3% | Non-toxic | 25.2 writhings | 22.6% | 37.1 µM | 48.4% | 431 µM | – | – | – | – | – | – | – | –
CC(=O)Oc1ccccc1C(=O)O [ASPIRIN] | – | – | – | – | – | – | – | – | – | 54.3% | – | 22.3 | – | – | – | – | – | – | –
CCNC(=S)N1N=C(c2ccc(OC)cc2)CC1c1ccc[nH]1 (stereo not drawn) | 27.6% | 23.2% | 18.9% | 22.1 µM | 25.9% | Non-toxic | 21.2 writhings | 22.7% | 24 µM | 56.6% | 400 µM | – | – | – | – | – | – | – | –
COc1ccc2c(c1)c(CC(=O)O)c(C)n2C(=O)c1ccc(Cl)cc1 [INDOMETHACIN] | 42.2% | 32.3% | 33.6% | – | – | – | – | 37.1% | – | – | – | – | 48.1% | – | – | – | – | – | –
CNC(=S)N1N=C(c2ccc(OC)cc2)CC1c1ccc[nH]1 (stereo not drawn) | 17.7% | 14.2% | 10.5% | 12.5 µM | – | Non-toxic | 39.2 writhings | 14.7% | 12.5 µM | 19.7% | 430 µM | – | – | – | – | – | – | – | –
CCCNC(=S)N1N=C(c2ccc(OC)cc2)CC1c1ccc[nH]1 (stereo not drawn) | 32.8% | 20.3% | 22.6% | 29.1 µM | 34.8% | Non-toxic | 19.5 writhings | 23.6% | 33.7 µM | 60% | 409 µM | – | – | – | – | – | – | – | –
CCNC(=S)N1N=C(c2ccc(Cl)cc2)CC1c1ccc[nH]1 (stereo not drawn) | 24% | 16.1% | 20.6% | 450 µM | 23.5% | Non-toxic | 21.5 writhings | 21.3% | – | 55.9% | 20.2 µM | – | – | 26.9 µM | – | – | – | – | –
CNC(=S)N1N=C(c2ccc(C)cc2)CC1c1ccc[nH]1 (stereo not drawn) | 16.3% | 13.2% | 12.2% | 349 µM | – | Non-toxic | 39.7 writhings | 11.2% | – | 18.6% | 295 µM | – | – | – | – | – | – | – | –
CNC(=S)N1N=C(c2ccc(Cl)cc2)CC1c1ccc[nH]1 (stereo not drawn) | 1.9% | – | 7.2% | 416 µM | 20.7% | – | 37.8 writhings | 6.6% | – | 22.5% | 11.2 µM | – | – | 13.2 µM | – | – | – | – | –
C#CCN(C)Cc1ccccc1 [PARGYLINE] | – | – | – | 2.85 µM | – | – | – | – | – | – | 390 µM | – | – | – | – | – | – | – | –
Cc1ccc(C2=NN(C(=S)Nc3ccccc3)C(c3ccc[nH]3)C2)cc1 (stereo not drawn) | – | – | – | 351 µM | – | Non-toxic | 45.2 writhings | – | – | – | 300 µM | – | – | – | 11.8% | 9.1% | 6.1% | 13.1% | 7.4%
CCNC(=S)N1N=C(c2ccc(C)cc2)CC1c1ccc[nH]1 (stereo not drawn) | 16.3% | 4.9% | 12.4% | 369 µM | – | Non-toxic | 41.3 writhings | 10.5% | – | 15.4% | 329 µM | – | – | – | – | – | – | – | –
CCCNC(=S)N1N=C(c2ccc(C)cc2)CC1c1ccc[nH]1 (stereo not drawn) | 22.7% | 14.6% | 15.7% | 389 µM | – | Non-toxic | 25.3 writhings | 20.9% | – | 48.2% | 369 µM | – | – | – | – | – | – | – | –
CCCNC(=S)N1N=C(c2ccc(Cl)cc2)CC1c1ccc[nH]1 (stereo not drawn) | 28.1% | 19.8% | 23.9% | 421 µM | 28.3% | Non-toxic | 20.5 writhings | 25.2% | – | 57.9% | 29.2 µM | – | – | 33.2 µM | – | – | – | – | –
Cl.S=C(Nc1ccccc1)N1N=C(c2ccc(Cl)cc2)CC1c1ccc[nH]1 (stereo not drawn) | – | – | – | 441 µM | – | Non-toxic | – | – | – | – | 59.3 µM | – | – | 60.8 µM | – | – | – | – | –
